Results on 26 compounds are retold here after patent US9914730B2, “Azaquinazoline inhibitors of Atypical protein Kinase C” (Ignyta, Inc., priority 2012, dated 2018).

The target of one data set is T1, full-length human PKCι (Homo sapiens, UniProt P41743).
T1 construct: Recombinant, full-length human PKCι expressed in Sf21 insect cells is also commercially available; purchased; host or cells: Sf21 insect cells
T1 sequence (P41743 1-596): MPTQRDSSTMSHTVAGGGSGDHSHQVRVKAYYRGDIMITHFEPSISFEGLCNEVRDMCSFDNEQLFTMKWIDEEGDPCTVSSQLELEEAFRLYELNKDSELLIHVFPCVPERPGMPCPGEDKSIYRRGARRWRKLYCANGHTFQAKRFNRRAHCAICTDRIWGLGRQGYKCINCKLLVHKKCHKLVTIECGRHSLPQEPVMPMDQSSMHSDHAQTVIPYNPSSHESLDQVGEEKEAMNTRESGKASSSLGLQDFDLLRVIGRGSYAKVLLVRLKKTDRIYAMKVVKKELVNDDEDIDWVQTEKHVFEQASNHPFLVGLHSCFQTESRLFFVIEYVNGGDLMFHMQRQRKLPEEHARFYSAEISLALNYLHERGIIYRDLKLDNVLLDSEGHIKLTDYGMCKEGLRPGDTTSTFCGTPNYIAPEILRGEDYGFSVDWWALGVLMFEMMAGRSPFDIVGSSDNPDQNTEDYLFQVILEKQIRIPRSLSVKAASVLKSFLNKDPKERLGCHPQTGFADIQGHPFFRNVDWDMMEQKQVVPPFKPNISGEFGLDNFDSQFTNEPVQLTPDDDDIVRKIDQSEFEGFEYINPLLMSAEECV
The data set is described as follows: PKCι IC50 IMAP assay, full-length PKCι at 150 μM ATP. Type of data set: biochemical. Particulars: read-out: IC50 in IMAP assay against full length PKCi at 150 μM ATP. In short, it runs like this: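 Dose-response IC50 values come from IMAP fluorescence polarisation after 60 min room-temperature turnover of 100 nM FAM peptide by ~15 pM insect-cell-expressed full-length PKCι at 150 μM ATP (5× KM^APP), normalised to no-compound and no-enzyme controls.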

In another data set the test system is NSCLC cells. Particulars: pharmacological inhibition of PKCι; literature (Regala et al.); cited from earlier work.
In another data set the test system is follicular lymphoma. Particulars: by targeting a PKCζ-MAPK-mTOR pathway; literature (Leseux et al.); cited from earlier work.

By IC50 is commonly meant the concentration that inhibits the measured activity by half. As usually defined, the melting point is the temperature, or range, at which the solid turns liquid.

Some results are limits rather than exact numbers.

For the compound `COc1cncc2nc(-c3ccnc(Nc4ccccc4)c3)nc(N3CC[C@H](O)[C@H](O)C3)c12` (racemic) [Example 436, (±)-cis-1-[5-Methoxy-2-(2-phenylamino-pyridin-4-yl)-pyrido[3,4-d]pyrimidin-4-yl]-piperidine-3,4-diol], the melting point was in the range of 241 to 243 °C. At full-length human PKCι, the IC50 was 0.1 to 1 µM. `COc1cncc2nc(-c3ccnc(Nc4ccc(Cl)nc4)c3)nc(N3CCNCC3)c12` [Example 405, (6-Chloro-pyridin-3-yl)-[4-(5-methoxy-4-piperazin-1-yl-pyrido[3,4-d]pyrimidin-2-yl)-pyridin-2-yl]-amine] displayed a melting point of 206 to 208 °C. Moreover, the IC50 at full-length human PKCι is less than 0.1 µM.

In turn, `COc1cncc2nc(-c3ccnc(Nc4ncccn4)c3)nc(N3CCNCC3)c12` [Example 423, [4-(5-Methoxy-4-piperazin-1-yl-pyrido[3,4-d]pyrimidin-2-yl)-pyridin-2-yl]-pyrimidin-2-yl-amine] returned a melting point of 200 to 203 °C. At full-length human PKCι, the IC50 was 0.1 to 1 µM.

For `COc1cccc(Nc2cc(-c3nc(N4CCNCC4)c4c(OC)cncc4n3)ccn2)n1` [Example 448, [4-(5-Methoxy-4-piperazin-1-yl-pyrido[3,4-d]pyrimidin-2-yl)-pyridin-2-yl]-(6-methoxy-pyridin-2-yl)-amine], the melting point lay in the range of 189 to 191 °C. Further, on full-length human PKCι, the IC50 was less than 0.1 µM.

Consider `COc1cncc2nc(-c3ccnc(Nc4ccccc4)c3)nc(N3CCCCC3)c12` [Example 459, [4-(5-Methoxy-4-piperidin-1-yl-pyrido[3,4-d]pyrimidin-2-yl)-pyridin-2-yl]-phenyl-amine], for which the melting point was 221 to 223 °C. Also, at full-length human PKCι, the 50% inhibitory concentration (IC50) is 10 to 40 µM.

With `COc1cncc2nc(-c3ccnc(Nc4ccccc4)c3)nc(N3CCC(C#N)CC3)c12` [Example 461, 1-[5-Methoxy-2-(2-phenylamino-pyridin-4-yl)-pyrido[3,4-d]pyrimidin-4-yl]-piperidine-4-carbonitrile], the melting point lay in the range of 242 to 244 °C. The IC50 on full-length human PKCι is 1 to 10 µM. The corresponding values for `COc1cncc2nc(-c3ccnc(Nc4ccccc4)c3)nc(N3CCC(F)CC3)c12` [Example 462, {4-[4-(4-Fluoro-piperidin-1-yl)-5-methoxy-pyrido[3,4-d]pyrimidin-2-yl]-pyridin-2-yl}-phenyl-amine] are 202 to 205 °C and 10 to 40 µM. The corresponding values for `COc1cncc2nc(-c3ccnc(Nc4ccccc4)c3)nc(N3CC[C@@H](CO)C3)c12` [Example 465, {(R)-1-[5-Methoxy-2-(2-phenylamino-pyridin-4-yl)-pyrido[3,4-d]pyrimidin-4-yl]-pyrrolidin-3-yl}-methanol] are 208 to 209 °C and 1 to 10 µM. The corresponding values for `COc1cncc2nc(-c3ccnc(Nc4ccccc4)c3)nc(N3CC[C@H](CO)C3)c12` [Example 466, {(S)-1-[5-Methoxy-2-(2-phenylamino-pyridin-4-yl)-pyrido[3,4-d]pyrimidin-4-yl]-pyrrolidin-3-yl}-methanol] are 210 to 211 °C and 1 to 10 µM. Take `N#Cc1ccc(CC(=O)Nc2cc(-c3nc(N4CCNCC4)c4c(C5CC5)cncc4n3)ccn2)cc1` [Example 473, 2-(4-Cyano-phenyl)-N-[4-(5-cyclopropyl-4-piperazin-1-yl-pyrido[3,4-d]pyrimidin-2-yl)-pyridin-2-yl]-acetamide]: the melting point fell in the range of 200 to 203 °C. Also, the IC50 at full-length human PKCι was less than 0.1 µM. With `Cc1cc(N2CCOCC2)ccc1Nc1cc(-c2nc(N3CCNCC3)c3c(C4CC4)cncc3n2)ccn1` [Example 474, [4-(5-Cyclopropyl-4-piperazin-1-yl-pyrido[3,4-d]pyrimidin-2-yl)-pyridin-2-yl]-(2-methyl-4-morpholin-4-yl-phenyl)-amine], the melting point lay within 214 to 220 °C. Further, at full-length human PKCι, the concentration for half-maximal inhibition (IC50) was less than 0.1 µM. The corresponding values for `c1cc(-c2nc(N3CCNCC3)c3c(C4CC4)cncc3n2)cc(Nc2ccc(N3CCOCC3)nc2)n1` [Example 475, [4-(5-Cyclopropyl-4-piperazin-1-yl-pyrido[3,4-d]pyrimidin-2-yl)-pyridin-2-yl]-(6-morpholin-4-yl-pyridin-3-yl)-amine] are 217 to 219 °C and less than 0.1 µM. The corresponding values for `c1cncc(Nc2cc(-c3nc(N4CCNCC4)c4c(C5CC5)cncc4n3)ccn2)c1` [Example 476, [4-(5-Cyclopropyl-4-piperazin-1-yl-pyrido[3,4-d]pyrimidin-2-yl)-pyridin-2-yl]-pyridin-3-yl-amine] are 226 to 228 °C and less than 0.1 µM. Compound `c1ccc(Nc2cc(-c3nc(N4CCNCC4)c4c(C5CC5)cncc4n3)ccn2)cc1` [Example 481, [4-(5-Cyclopropyl-4-piperazin-1-yl-pyrido[3,4-d]pyrimidin-2-yl)-pyridin-2-yl]-phenyl-amine] returned a melting point of 221 to 226 °C. On to `Cc1[nH]c2nccc(-c3nc(N4CCNCC4)c4c(C5CC5)cncc4n3)c2c1Cl` [Example 2209, 2-(3-Chloro-2-methyl-1H-pyrrolo[2,3-b]pyridin-4-yl)-5-cyclopropyl-4-piperazin-1-yl-pyrido[3,4-d]pyrimidine], for which the half-maximal inhibitory concentration (IC50) on full-length human PKCι was less than 0.1 µM. On the same count and under the same terms, in the case of `c1cc(-c2nc(N3CCNCC3)c3c(C4CCC4)cncc3n2)cc(NC2CCOCC2)n1` [Example 2210, [4-(5-Cyclobutyl-4-piperazin-1-yl-pyrido[3,4-d]pyrimidin-2-yl)-pyridin-2-yl]-(tetrahydro-pyran-4-yl)-amine] it was less than 0.1 µM; in that of `CC1(C)C(=O)Nc2nccc(-c3nc(N4CCNCC4)c4c(C5CC5)cncc4n3)c21` [Example 2211, 4-(5-Cyclopropyl-4-piperazin-1-yl-pyrido[3,4-d]pyrimidin-2-yl)-3,3-dimethyl-1,3-dihydro-pyrrolo[2,3-b]pyridin-2-one], 1 to 10 µM. With `O=C(O)CC([S-])C(=O)O.[Au+]` (stereo not drawn) [aurothiomalate], the “growth of NSCLC cells in soft agar” value in the data set with NSCLC cells is given as “blocks the growth”. As to “(2,6-Difluoro-phenyl)-{2-[2-(2,6-difluoro-phenylamino)-pyridin-4-yl]-4-piperazin-1-yl-pyrido[3,4-d]pyrimidin-5-yl}-amine [Example 262]”, the IC50 at full-length human PKCι lay in the range of 0.1 to 1 µM.

Turning to “(3-Chloro-2,6- difluoro-phenyl)- [4-(5-cyclopropyl- 4-piperazin-1-yl- pyrido[3,4- d]pyrimidin-2-yl)- pyridin-2-yl]- amine [Example 649]”, the IC50 at full-length human PKCι is less than 0.1 µM. The same measure, in the same setting: in the case of “(3S)-3-benzyl-1-[6- chloro-2-(pyridin-4- yl)pyrido[3,4-d]- pyrimidin-4- yl]piperazine [Example 14]” it was 0.1 to 1 µM.

As to “N-[(2S)-2-amino- 3-phenylpropyl]- 8-(furan-3-yl)-2- (pyridin-4-yl)- pyrido[3,4-d]- pyrimidin-4- amine [Example 113]”, the IC50 at full-length human PKCι was in the range of 0.1 to 1 µM.

For “Rituximab: "the anti-CD20 therapeutic antibody rituximab"”, the follicular lymphoma proliferation entry with follicular lymphoma is “inhibits follicular lymphoma proliferation”.

Regarding “[4-(5-Cyclopropyl- 4-piperazin-1-yl- pyrido[3,4- d]pyrimidin-2-yl)- pyridin-2-yl]-(2,3- dichloro-phenyl)- amine [Example 543]”, on full-length human PKCι, the IC50 is less than 0.1 µM.

For the compound “[4-(5-Cyclopropyl- 4-piperazin-1-yl- pyrido[3,4- d]pyrimidin-2-yl)- pyridin-2-yl]-(4- trifluoromethyl- phenyl)-amine [Example 596]”, on full-length human PKCι, the half-maximal inhibitory concentration (IC50) fell in the range of 10 to 40 µM.

Regarding “{4-[5-Cyclopropyl- 4-((R)-3- fluoromethyl- piperazin-1- yl)-pyrido[3,4-d]- pyrimidin-2-yl]- pyridin-2-yl}-(6- fluoro-pyridin-2- yl)-amine [Example 512]”, the IC50 on full-length human PKCι was less than 0.1 µM.
